According to article PMC6934184, “Selective DNA-PKcs inhibition extends the therapeutic index of localized radiotherapy and chemotherapy” (The Journal of Clinical Investigation, 2019):

Biological target: T1, GSK3B (GSK3 beta) (Homo sapiens, UniProt P49841)
T1 construct: purchased Thermo Fisher Scientific (Life Technologies) SelectScreen
Assay: SelectScreen Z'LYTE
Assay type: biochemical
Summary of the method: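 SelectScreen broad panel; activity (Z'LYTE, Adapta) plus binding formats. ATP: Km app for CSF1R Z'LYTE; 10 for CAMK1 Adapta. Readout = % per kinase.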

T1 sequence (P49841 whole entry): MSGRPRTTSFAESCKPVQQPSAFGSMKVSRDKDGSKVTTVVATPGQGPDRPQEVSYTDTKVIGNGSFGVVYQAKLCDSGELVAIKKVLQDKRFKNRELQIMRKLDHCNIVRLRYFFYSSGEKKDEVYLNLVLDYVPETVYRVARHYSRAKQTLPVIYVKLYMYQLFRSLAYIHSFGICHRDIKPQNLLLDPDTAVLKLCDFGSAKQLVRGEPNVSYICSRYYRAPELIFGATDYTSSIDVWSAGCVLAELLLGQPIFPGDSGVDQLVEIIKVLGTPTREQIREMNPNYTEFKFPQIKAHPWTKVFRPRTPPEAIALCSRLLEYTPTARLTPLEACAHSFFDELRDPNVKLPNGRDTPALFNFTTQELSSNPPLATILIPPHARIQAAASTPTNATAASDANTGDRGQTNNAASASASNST

CN(C(=O)CN1CCOCC1)c1ccc2sc3c(-c4cccc5c(=O)cc(N6CC7CCC(C6)O7)oc45)cccc3c2c1 [NU5455]
inhibition at 1 µM: -2.5%
